This passage reports EC50 results from BindingDB's records for doi:10.7270/Q2TX3CTT (Broad Institute, 2010).

Where a name gives a salt, the structure may show the parent alone. Bounds are passed on as bounds.

Sequence of Glycogen synthase kinase-3 beta (P49841 whole entry): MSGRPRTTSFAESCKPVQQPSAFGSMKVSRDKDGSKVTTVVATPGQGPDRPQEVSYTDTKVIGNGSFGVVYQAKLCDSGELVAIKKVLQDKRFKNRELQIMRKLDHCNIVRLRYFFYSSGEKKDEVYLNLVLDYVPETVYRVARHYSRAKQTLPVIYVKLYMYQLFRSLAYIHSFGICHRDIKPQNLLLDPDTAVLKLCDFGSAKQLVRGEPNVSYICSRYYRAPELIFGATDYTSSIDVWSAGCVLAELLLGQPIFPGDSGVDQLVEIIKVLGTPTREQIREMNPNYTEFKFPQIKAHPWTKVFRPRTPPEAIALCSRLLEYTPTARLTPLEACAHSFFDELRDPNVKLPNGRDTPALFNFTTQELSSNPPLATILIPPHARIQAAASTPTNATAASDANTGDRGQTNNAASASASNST

The assay concerns the target Glycogen synthase kinase-3 beta (Homo sapiens, UniProt P49841). In words: concentration-response blocking of human GSK3B – biochemical, luminescence, cell-free homogeneous, retest, dose response (AID 434954).
Compound `Nc1nonc1-n1nnc(C(=O)NN=Cc2cccc(O)c2)c1CN1CCCC1` [1-(4-azanyl-1,2,5-oxadiazol-3-yl)-N-[(3-hydroxyphenyl)methylideneamino]-5-(pyrrolidin-1-ylmethyl)-1,2,3-triazole-4-carboxamide] returned an EC50 of 12.8 µM.

With `Cc1nonc1-c1nnc(-c2nonc2N)[nH]1` [SMR000040798], the EC50 turned out to be 29.7 µM.

The compound `Cn1c(SCC(=O)NC2CCCCC2)nnc1-c1ccccn1` yielded an EC50 of more than 300 µM.

As to `CC(c1ccccc1)n1c(CCCO)nc2ccccc21` (stereo not given) [3-[1-(1-Phenyl-ethyl)-1H-benzoimidazol-2-yl]-propan-1-ol], the 50% effective concentration (EC50) is more than 300 µM.

As to `Cc1ccccc1CSc1nnc([C@@H]2CCCN2)o1` [MLS000333752], the EC50 was more than 300 µM.

In turn, `CCCC1=Nc2ncnn2C(c2cccs2)C1C(=O)OCC` (stereo not given) [5-propyl-7-thiophen-2-yl-1,7-dihydro-[1,2,4]triazolo[1,5-a]pyrimidine-6-carboxylic acid ethyl ester] registered an EC50 of 23.2 µM.

`c1cncc(CNc2nc(-c3cccnc3)nc3ccccc23)c1` [2-pyridin-3-yl-N-(pyridin-3-ylmethyl)quinazolin-4-amine] came in with a concentration for a half-maximal effect (EC50) of more than 300 µM.

Consider `O=C1C2C3C=CC(C3)C2C(=O)N1CCCCCCN1C(=O)C2C3C=CC(C3)C2C1=O` (stereo not given) [SMR000283963], for which the EC50 was more than 300 µM.

Take `Cc1ccccc1C(=O)Nc1ccc(O)c2c(=O)cc(-c3ccccc3Cl)oc12` [MLS000518806]: the EC50 is more than 300 µM.

Compound `O=S(=O)(NCCC1CC1(Cl)Cl)c1ccc(Cl)cc1` (stereo not given) [N1-[2-(2,2-dichlorocyclopropyl)ethyl]-4-chlorobenzene-1-sulfonamide] displayed an EC50 of more than 300 µM.

Compound `O=[N+]([O-])c1ccccc1[CH+][N-]n1c(C2CCCCC2)n[nH]c1=S` [5-Cyclohexyl-4-{[1-(2-nitro-phenyl)-meth-(E)-ylidene]-amino}-4H-[1,2,4]triazole-3-thiol] registered an EC50 of 155 µM.

Take `Cc1nn(C)c(C(=O)N2CCc3ccccc32)c1Br` [SMR000228334]: the EC50 was more than 300 µM.

`C[N+](C)=c1ccn(CC(=O)N2c3ccccc3Sc3ccccc32)cc1`: the half-maximal effective concentration (EC50) is more than 300 µM.

The compound `CCOC(=O)C1C(C)=Nc2ncnn2C1c1ccccc1F` (stereo not given) [ethyl 7-(2-fluorophenyl)-5-methyl-4,7-dihydro[1,2,4]triazolo[1,5-a]pyrimidine-6-carboxylate] gave a concentration for a half-maximal effect (EC50) of more than 300 µM.

Consider `O=C1NC(=Nc2ccccc2)SC1=Cc1ccccc1` [5-Benzylidene-2-phenylimino-thiazolidin-4-one], for which the EC50 is more than 300 µM.

In the case of `COCCn1c(SCC(=O)Nc2cccc(S(N)(=O)=O)c2)nc2ccccc21` [2-[1-(2-methoxyethyl)benzimidazol-2-yl]sulfanyl-N-(3-sulfamoylphenyl)ethanamide], the EC50 was more than 300 µM.

On to `CCn1c(-c2nn(C)cc2Cl)n[nH]c1=S` [MLS000703969], for which the EC50 is more than 300 µM.

Compound `COc1ccc(C(O)c2coc3ccc(O)c(CN(C)C)c23)cc1` (stereo not given) [SMR000070308] returned an EC50 of more than 300 µM.

In the case of `C[C@@H]1O[C@@H](OC[C@H]2O[C@@H](Oc3c(-c4ccc(O)c(O)c4)oc4cc(O)cc(O)c4c3=O)[C@H](O)[C@@H](O)[C@@H]2O)[C@H](O)[C@H](O)[C@H]1O` [3-Rhamnoglucosylquercetin], the EC50 was 28 µM.

Compound `O=C(O)Cn1cc(CN=Nc2ccc([N+](=O)[O-])cn2)c2ccccc21` [SMR000540193] yielded an EC50 of 8.24 µM.

Regarding `O=c1cc(-c2ccccc2Cl)oc2c(NS(=O)(=O)c3ccccc3C(F)(F)F)ccc(O)c12`, the EC50 is more than 300 µM.

Compound `O=C(NCC(c1ccco1)N1CCc2ccccc21)c1cccc([N+](=O)[O-])c1` (stereo not given) [SMR000811914] returned an EC50 of more than 300 µM.

Consider `Cc1ccc(S(=O)(=O)NC2=NC(=O)/C(=C/c3ccccc3)S2)cc1` [4-methyl-N-[(5Z)-4-oxo-5-(phenylmethylene)-2-thiazolyl]benzenesulfonamide], for which the EC50 was more than 300 µM.

In turn, `Cc1[nH][nH]c(=O)c1N=Nc1ccccc1C#N` [2-[2-(3-methyl-5-oxopyrazol-4-yl)hydrazinyl]benzonitrile] yielded a 50% effective concentration (EC50) of 15.9 µM.

Regarding `COc1cccc(C(=O)NNC(=O)c2ccccc2)c1`, the EC50 is more than 300 µM.

In turn, `COCCCNc1nc(N)c([N+](=O)[O-])c(NCc2ccccc2)n1` showed an EC50 of 5.95 µM.

`CN(C)CCCNc1nc(N)c([N+](=O)[O-])c(NC2CCCCC2)n1` [MLS001213448] yielded an EC50 of 3.15 µM.

For `CCC(=O)Nc1nn(CC(C)C)c2nc3ccc(C)cc3cc12` [N-[6-methyl-1-(2-methylpropyl)pyrazolo[3,4-b]quinolin-3-yl]propanamide], the EC50 is more than 300 µM.

In turn, `CCOc1ccc(N2C(=O)C(=Nc3ccccc3O)C(Cl)C2=O)cc1` (stereo not given) [SMR000124402] showed an EC50 of more than 300 µM.

For `CC(C)N1C(=O)N(c2ccc(Cl)cc2)C(C)(O)CC1(C)C` (stereo not given) [SMR000539554], the EC50 is more than 300 µM.

Consider `COc1ccc(C(=O)OCCc2ccc(O)cc2)cc1`, for which the EC50 is more than 300 µM.

The compound `CCSc1ncnc2c(C#N)c3n(c12)CCCCC3` [4-ethylsulfanyl-7,8,9,10-tetrahydro-6H-pyrimido[3,4]pyrrolo[3,5-a]azepine-11-carbonitrile] came in with an EC50 of 77.5 µM.

Turning to `Nc1nc(NCc2ccc(Cl)cc2)nc(NCCO)c1[N+](=O)[O-]` [SMR000436738], the EC50 was 13.6 µM.

Regarding `Cc1ccsc1CN=Nc1ncnc2nc[nH]c12` [N-[(3-methyl-2-thiophenyl)methylideneamino]-7H-purin-6-amine], the 50% effective concentration (EC50) amounted to 9 µM.

`COC(=O)Cc1ccc2sc(-c3ccccc3)nc2c1` [(2-Phenyl-benzothiazol-5-yl)-acetic acid methyl ester] gave an EC50 of more than 300 µM.

`COc1ccc(C(=O)c2coc3ccc(O)c(CN4CCCCC4)c23)cc1` [[5-hydroxy-4-(piperidin-1-ylmethyl)-1-benzofuran-3-yl]-(4-methoxyphenyl)methanone] displayed an EC50 of more than 300 µM.

Consider `CN(C)CCc1cc2c(c3c1ccc1ccccc13)OCO2` [N,N-dimethyl-2-(5-naphtho[2,1-g][1,3]benzodioxolyl)ethanamine;hydrochloride], for which a half-maximal response (EC50) required 25.9 µM.

`COc1ccc(C(C)=NNC(=O)CNC(=O)Cc2ccccc2)c(OC)c1` [N-[2-[2-[1-(2,4-dimethoxyphenyl)ethylidene]hydrazinyl]-2-oxoethyl]-2-phenylacetamide] returned an EC50 of more than 300 µM.

`COc1cccc2c1cc1c(=O)n(CC(=O)NCCCN3CCN(C)CC3)nc(C)n12` yielded an EC50 of more than 300 µM.

`CC(CC(=O)N1CCN(c2cccc(Cl)c2)CC1)S(=O)(=O)c1ccc2c(c1)NC(=O)CO2` (stereo not given) [6-[4-[4-(3-chlorophenyl)piperazin-1-yl]-4-oxobutan-2-yl]sulfonyl-4H-1,4-benzoxazin-3-one] came in with a 50% effective concentration (EC50) of more than 300 µM.

For `O=C(CSc1nnc(COc2ccc(Cl)cc2)o1)N1c2ccccc2CCc2ccccc21` [2-[5-(4-Chloro-phenoxymethyl)-[1,3,4]oxadiazol-2-ylsulfanyl]-1-(10,11-dihydro-dibenzo[b,f]azepin-5-yl)-ethanone], the EC50 was more than 300 µM.

`CCn1nc(NC(=O)CC(C)C)c2cc3ccc(C)cc3nc21` [N-(1-ethyl-7-methylpyrazolo[3,4-b]quinolin-3-yl)-3-methylbutanamide] showed an EC50 of more than 300 µM.

In turn, `C[C@H](NC(=O)[C@@H]1CSC2c3ccccc3C(=O)N21)C(=O)NCc1c(F)cccc1Cl` (stereo partly drawn) [(3R)-N-[(2S)-1-[(2-chloro-6-fluorophenyl)methylamino]-1-oxopropan-2-yl]-5-oxo-3,9b-dihydro-2H-thiazolo[2,3-a]isoindole-3-carboxamide] yielded an EC50 of more than 300 µM.

Regarding `CCOC(=O)c1cnc2ccc(OC)cc2c1Nc1ccc(N2CCN(C)CC2)cc1` [6-methoxy-4-[4-(4-methyl-1-piperazinyl)anilino]-3-quinolinecarboxylic acid ethyl ester], the EC50 was determined as 5.26 µM.

With `COC(=O)c1nnn(-c2nonc2N)c1CSc1nc2ccccc2o1` [methyl 1-(4-amino-1,2,5-oxadiazol-3-yl)-5-[(1,3-benzoxazol-2-ylthio)methyl]-1H-1,2,3-triazole-4-carboxylate], the midpoint of the response, the EC50, lay at 127 µM.

As to `C=CCOc1ccc(CN=Nc2ccccn2)cc1OC` [N-[(3-methoxy-4-prop-2-enoxyphenyl)methylideneamino]pyridin-2-amine], the EC50 was more than 300 µM.

Compound `COc1ccc(-c2nn(-c3ccccc3)cc2C=NN=C(N)N)cc1OC` [SMR000261891] came in with an EC50 of more than 300 µM.

`CCCn1nc(NC(=O)C2CCCO2)c2cc3cccc(C)c3nc21` (stereo not given) [N-(8-methyl-1-propylpyrazolo[3,4-b]quinolin-3-yl)oxolane-2-carboxamide] gave an EC50 of more than 300 µM.

`CC(=O)c1cccc(NC(=O)NN2CCN(C)CC2)c1` [1-(3-ethanoylphenyl)-3-(4-methylpiperazin-1-yl)urea] registered an EC50 of more than 300 µM.

For the compound `NC(=O)c1ncn([C@@H]2O[C@H](CO)[C@@H](O)[C@H]2O)n1` [Tribavirin], the EC50 was more than 300 µM.

Compound `CCOc1ccccc1C=NNC(=O)c1nnn(-c2nonc2N)c1CN1CCC(C)CC1` [SMR000620330] had an EC50 of more than 300 µM.

`O=C(Nc1ccnc(-c2cccnc2)n1)c1ccc(Cl)c(Cl)c1` [MLS000327684] had a half-maximal effective concentration (EC50) of more than 300 µM.

Turning to `CCOc1cc(C2C(C(=O)N3CCCCC3)=C(C)N=C3CC(C)(C)CC(=O)C32)ccc1O` (stereo not given) [4-(3-ethoxy-4-hydroxyphenyl)-2,7,7-trimethyl-3-[oxo(1-piperidinyl)methyl]-1,4,6,8-tetrahydroquinolin-5-one], the EC50 was more than 300 µM.

Consider `O=C(O)CSCC(=O)NCc1c(Cl)cccc1Oc1ccccc1`, for which the EC50 is more than 300 µM.

For the compound `COc1ccc(C(=O)c2sc(Nc3ccccc3F)nc2N)cc1`, the 50% effective concentration (EC50) turned out to be 1.48 µM.

Consider `O=C(Nc1ncc(Cc2ccccc2Cl)s1)C1CCCO1` (stereo not given) [Tetrahydro-furan-2-carboxylic acid [5-(2-chloro-benzyl)-thiazol-2-yl]-amide], for which the EC50 amounted to 27.6 µM.

In the case of `CCCn1c(SCC(=O)Nc2ccccc2OC)nnc1-c1ccco1`, the EC50 was more than 300 µM.

With `N=C(NO)c1ccc(Oc2ccccc2Cl)c([N+](=O)[O-])c1` [4-(2-chlorophenoxy)-N'-hydroxy-3-nitrobenzenecarboximidamide], the EC50 is more than 300 µM.

`Oc1ccc(CN=Nc2ncc(Br)cn2)c(O)c1`: the midpoint of the response, the EC50, lay at 12.3 µM.

In turn, `CCn1c(SCC(=O)Nc2ccc(Cl)cc2)nnc1C1CC1` [MLS000115911] gave an EC50 of more than 300 µM.

In general, EC50 refers to the concentration giving half of the maximal effect.
